Assay results as given in ChEMBL document CHEMBL1201862, “PubChem BioAssay data set” (2004).
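Assay format: 96-well plates, 48-hour exposure. GI50 is the concentration that inhibits growth by half.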 The source made the active and inactive calls. Cut-off read from the data, not from the text of the source: active = GI50 up to about 1.1 µM and inactive = higher.

Tests used:
Assay in all cases: NCI anticancer screen, dose series, 48 h
786-0 = system: 786-0
A498 = system: A498
A549 = system: A549
ACHN = system: ACHN
CAKI-1 = system: CAKI-1
CCRF-CEM = system: CCRF-CEM
COLO 205 = system: COLO 205
DLD-1 = system: DLD-1
DMS-273 = system: DMS-273
EKVX = system: EKVX
HCC 2998 = system: HCC 2998
HCT-116 = system: HCT-116
HCT-15 = system: HCT-15
HL-60 = system: HL-60
HOP-62 = system: HOP-62
HT-29 = system: HT-29
IGROV-1 = system: IGROV-1
K562 = system: K562
KM-20L2 = system: KM-20L2
KM12 = system: KM12
LOX IMVI = system: LOX IMVI
LXFL 529 = system: LXFL 529
M14 = system: M14
M19-MEL = system: M19-MEL
MOLT-4 = system: MOLT-4
Malme-3M = system: Malme-3M
NCI-H226 = system: NCI-H226
NCI-H23 = system: NCI-H23
NCI-H460 = system: NCI-H460
NCI-H522 = system: NCI-H522
OVCAR-3 = system: OVCAR-3
OVCAR-4 = system: OVCAR-4
OVCAR-5 = system: OVCAR-5
OVCAR-8 = system: OVCAR-8
RPMI-8226 = system: RPMI-8226
RXF 393 = system: RXF 393
SF-268 = system: SF-268
SF-295 = system: SF-295
SK-MEL-28 = system: SK-MEL-28
SK-MEL-2 = system: SK-MEL-2
SK-MEL-5 = system: SK-MEL-5
SK-OV-3 = system: SK-OV-3
SN12C = system: SN12C
SNB-19 = system: SNB-19
SNB-75 = system: SNB-75
SNB-78 = system: SNB-78
SR = system: SR
SW-620 = system: SW-620
TK-10 = system: TK-10
U-251 = system: U-251
UACC-257 = system: UACC-257
UACC-62 = system: UACC-62
UO-31 = system: UO-31
XF498 = system: XF498
DMS-114 = system: DMS-114
HOP-18 = system: HOP-18
HOP-92 = system: HOP-92
SF-539 = system: SF-539

For `Cc1ccc(/C=C/C(=O)c2cccc3ccccc23)cc1`, the GI50 (786-0) was 15 µM (inactive), the GI50 (A498) was 13.9 µM (inactive) and the GI50 (A549) was 16.7 µM (inactive). For the same compound, the GI50 (ACHN) was 16.9 µM (inactive), the GI50 (CAKI-1) was 16.4 µM (inactive) and the GI50 (CCRF-CEM) was 15.9 µM (inactive). The GI50 (COLO 205) was 20.5 µM (inactive), the GI50 (DLD-1) was > 10 µM (inactive) and the GI50 (DMS-273) was 19 µM (inactive). For the same compound, the GI50 (EKVX) was 17.8 µM (inactive), the GI50 (HCC 2998) was 22.9 µM (inactive) and the GI50 (HCT-116) was 11.5 µM (inactive). The GI50 (HCT-15) was 19.1 µM, the GI50 (HL-60) was 7.18 µM (inactive) and the GI50 (HOP-62) was 20.7 µM (inactive). For the same compound, the GI50 (HT-29) was 18.2 µM (inactive), the GI50 (IGROV-1) was > 10 µM (inactive) and the GI50 (K562) was 8.65 µM (inactive). For the same compound, the GI50 (KM-20L2) was 15.8 µM (inactive), the GI50 (KM12) was 13.2 µM (inactive) and the GI50 (LOX IMVI) was > 10 µM (inactive). The GI50 (LXFL 529) was 12.7 µM (inactive), the GI50 (M14) was 19.3 µM (inactive) and the GI50 (M19-MEL) was 21.2 µM (inactive). For the same compound, the GI50 (MOLT-4) was 13.6 µM (inactive), the GI50 (Malme-3M) was 15.3 µM (inactive) and the GI50 (NCI-H226) was 17.8 µM (inactive). The GI50 (NCI-H23) was > 10 µM (inactive), the GI50 (NCI-H460) was 15.2 µM (inactive) and the GI50 (NCI-H522) was 17.1 µM (inactive). The GI50 (OVCAR-3) was 17.5 µM (inactive), the GI50 (OVCAR-4) was 13.4 µM (inactive) and the GI50 (OVCAR-5) was 14.4 µM (inactive). The GI50 (OVCAR-8) was 14.5 µM (inactive), the GI50 (RPMI-8226) was 2.49 µM (inactive) and the GI50 (RXF 393) was 12.7 µM (inactive). The GI50 (SF-268) was 16.2 µM (inactive), the GI50 (SF-295) was 17.7 µM (inactive) and the GI50 (SK-MEL-28) was 18 µM (inactive). For the same compound, the GI50 (SK-MEL-2) was 18.5 µM (inactive), the GI50 (SK-MEL-5) was > 10 µM (inactive) and the GI50 (SK-OV-3) was 24.4 µM (inactive). The GI50 (SN12C) was 14.3 µM (inactive), the GI50 (SNB-19) was 16.1 µM (inactive) and the GI50 (SNB-75) was 19.1 µM (inactive). For the same compound, the GI50 (SNB-78) was 14.8 µM (inactive), the GI50 (SR) was 11.3 µM (inactive) and the GI50 (SW-620) was 13.5 µM (inactive). The GI50 (TK-10) was 15.2 µM (inactive), the GI50 (U-251) was 13 µM (inactive) and the GI50 (UACC-257) was 18.5 µM (inactive). The GI50 (UACC-62) was 17.4 µM (inactive), the GI50 (UO-31) was 25 µM (inactive) and the GI50 (XF498) was 15.3 µM (inactive).

In the case of `CCOC(=O)CC(=O)Sc1ccccc1`, the GI50 (786-0) is reported as 19.1 µM (inactive), the GI50 (A498) is reported as 15.8 µM (inactive) and the GI50 (A549) is reported as 14.6 µM (inactive). The GI50 (ACHN) was 23.1 µM (inactive), the GI50 (CCRF-CEM) was 3.82 µM (inactive) and the GI50 (COLO 205) was 25.9 µM (inactive). The GI50 (DLD-1) was 20 µM (inactive), the GI50 (DMS-114) was 14.4 µM (inactive) and the GI50 (DMS-273) was 20.7 µM (inactive). For the same compound, the GI50 (EKVX) was 19 µM (inactive), the GI50 (HCC 2998) was 23.9 µM (inactive) and the GI50 (HCT-116) was 12.6 µM (inactive). For the same compound, the GI50 (HL-60) was 13.4 µM (inactive), the GI50 (HOP-18) was > 100 µM (inactive) and the GI50 (HOP-62) was 27.1 µM (inactive). The GI50 (HOP-92) was 27.5 µM (inactive), the GI50 (HT-29) was 22.7 µM (inactive) and the GI50 (IGROV-1) was 12.5 µM (inactive). The GI50 (K562) was 19.4 µM (inactive), the GI50 (KM-20L2) was 21.2 µM (inactive) and the GI50 (KM12) was 25.6 µM (inactive). The GI50 (LOX IMVI) was 12.8 µM (inactive), the GI50 (M14) was 14.2 µM (inactive) and the GI50 (M19-MEL) was 17.9 µM (inactive). The GI50 (MOLT-4) was 11 µM (inactive), the GI50 (Malme-3M) was 25.6 µM (inactive) and the GI50 (NCI-H226) was 27.2 µM (inactive). For the same compound, the GI50 (NCI-H23) was 24.5 µM (inactive), the GI50 (NCI-H460) was 24.7 µM (inactive) and the GI50 (NCI-H522) was 11.8 µM (inactive). For the same compound, the GI50 (OVCAR-3) was 17.3 µM (inactive), the GI50 (OVCAR-4) was 37.7 µM (inactive) and the GI50 (OVCAR-5) was 36.4 µM (inactive). The GI50 (OVCAR-8) was 16.9 µM (inactive), the GI50 (RPMI-8226) was 17.7 µM (inactive) and the GI50 (RXF 393) was 10.3 µM (inactive). For the same compound, the GI50 (SF-268) was 3.25 µM (inactive), the GI50 (SF-295) was 29.6 µM (inactive) and the GI50 (SF-539) was 14 µM (inactive). For the same compound, the GI50 (SK-MEL-28) was 14.6 µM (inactive), the GI50 (SK-MEL-2) was 25.4 µM (inactive) and the GI50 (SK-MEL-5) was 17.3 µM (inactive). For the same compound, the GI50 (SK-OV-3) was 24.5 µM (inactive), the GI50 (SN12C) was 10.3 µM (inactive) and the GI50 (SNB-19) was 28.2 µM (inactive). The GI50 (SR) was 14.1 µM (inactive), the GI50 (SW-620) was 19.1 µM (inactive) and the GI50 (TK-10) was 38.3 µM (inactive). The GI50 (U-251) was 12.4 µM (inactive), the GI50 (UACC-257) was 28.1 µM (inactive) and the GI50 (UACC-62) was 16 µM (inactive). For the same compound, the GI50 (UO-31) was 14.7 µM (inactive) and the GI50 (XF498) was 34.4 µM (inactive).
